# Measurements: patent US20250114313A1, “OLIGO-BENZAMIDE ANALOGS AND THEIR USE IN CANCER TREATMENT” (BOARD OF REGENTS, THE UNIVERSITY OF TEXAS SYSTEM, priority 2022, published 2025)
# pIC50: −log10 of the molar value. Entries after “also recorded” stand apart in the source; their conditions may differ.
# How the values were obtained:
# [1] = system: 21 human preclinical TNBC cell line models; test: WST-1 assay, TNBC cell lines; assay type: cell-based; conditions: 21 TNBC cell lines, all six molecular subtypes, read-out: anti-proliferative IC50, WST-1
# Description: (§1) Cell viability assays: Cells were seeded in 96-well plates (2×10^3 cells/well) one day before the treatment. Cells were treated with varying concentrations of ERX-41 or ERX-11 analogs for 3-6 days. Then effects of ERX-41 or ERX-11 analogs on cell viability were measured in triplicate or sextuplicate with multiple biological replicates using the WST-1 (Promega), MTT as previously described^33 or CellTiter-Glo 2.0 (Promega) assays.
# [2] = system: ERα-positive breast cancer cells (MCF-7, ZR-75); test: MTT cell viability, ERα-positive breast cancer cells; assay type: cell-based, Human; conditions: Homo sapiens, MCF-7 and ZR-75, read-out: anti-proliferative IC50
# Description: as §1
# [3] = Pharmacokinetics in MDA-MB-231 xenograft tumor-bearing mice (LC-MS/MS); assay type: in vivo
# From the text: Analytical LC-MS/MS conditions: Compound levels in plasma and tissues for in vivo pharmacokinetic (PK) studies were monitored by LC-MS/MS using an AB Sciex (Framingham, MA) 6500^+ QTRAP® mass spectrometer coupled to a Shimadzu (Columbia, MD) Prominence LC. Analytes were detected with the mass spectrometer in positive MRM (multiple reaction monitoring) mode by following the precursor to fragment ion transition 705.3→592.3. An Agilent C18 XDB column (5 micron, 50×4.6 mm) was used for chromatography for PK studies with the following conditions: Buffer A: dH2O+0.1% formic acid, Buffer B: methanol+0.1% formic acid, 0-1.0 min 5% B, 1.0-2 min gradient to 98% B, 2-3.0 min 98% B, 3.0-3.2 min gradient to 5% B, 3.2-4.5 min 5% B. Tolbutamide (transition 271.2 to 91.2) from Sigma (St. Louis, MO) was used as an internal standard (IS). Pharmacokinetic studies were performed in MDA-MB-231 xenograft tumor-bearing female NOD-SCID mice. ERX-41 was given either orally or intraperitoneally (10 mg/kg single dose). Animals were sacrificed in groups of three, blood was obtained by cardiac puncture at each time point (0, 0.5, 1.5, 3, 6 and 24 hours post dose) using the anticoagulant EDTA and plasma isolated by centrifugation. Tumor and liver were also collected and snap frozen in liquid nitrogen after rinsing with PBS to remove surface adhering blood. Tissues were homogenized in a 3-fold volume (weight by volume) of PBS to generate a homogenate. 100 μl of plasma or tissue homogenate was mixed with 200 μl of methanol containing 0.15% formic acid and 15 ng/mL tolbutamide IS. The samples were vortexed 15 sec, incubated at room temp for 10 min and spun twice at 16,100×g 4° C. in a refrigerated microcentrifuge. The amount of compound present in plasma, tumor and liver was quantified by LC-MS/MS to determine the amount of compound in each matrix. Standard curves were generated using blank plasma (Bioreclamation, Westbury, NY, RRID:SCR_004728) or blank tissue homogenate spiked with known concentrations of test compound and processed as described above. The concentrations of drug in each time-point sample were quantified using Analyst 1.7.1 software (Sciex). A value of 3-fold above the signal obtained from blank plasma or tissue homogenate was designated the limit of detection (LOD). The lower limit of quantitation (LLOQ) was defined as the lowest concentration at which back calculation yielded a concentration within 20% of theoretical and which was above the LOD. The LLOQ for plasma and tumor was 0.1 ng/mL and 1 ng/mL in liver. PK parameters, Cmax, Tmax, Terminal T½ (calculated as Ln(2)/λz), AUClast (area under the concentration time curve to the last measured value determined by linear trapezoidal rule), Cl (clearance measured as Dose/AUCinf), and Vz (volume of distribution based on the terminal phase=Dose/AUCinf*λz) were calculated using the noncompartmental analysis tool of Phoenix WinNonLin version 8.01 (Certara/Pharsight, Sunnyvale, CA, RRID:SCR_003163).
# TNBC cells = test: Global de novo protein synthesis (puromycin labeled nascent proteins), TNBC cells; assay type: cell-based, Human; conditions: 1 μM
# Description: Western blotting: Whole cell lysates from breast cancer cells were prepared with 2× sample buffer (60 mM Tris-HCl, pH 6.8, 2% sodium dodecyl sulfate, 10% glycerol), and before loading mixed with loading buffer (5% 2-mercaptoethanol, 0.1% bromophenol blue) and boiled for denaturation, as previously described.^33 Proteins were separated by SDS-PAGE and subjected to Western analysis using antibodies. To detect nascent translated proteins, puromycin (final concentration 10 μg/mL) was added into cell plates 30 minutes before harvesting cells. Then samples were subjected to the Western blotting. Nascent proteins were detected by anti-puromycin antibody.
# [4] = system: parental SUM-159 xenografts; test: Parental SUM-159 xenografts; assay type: in vivo, SCID mice
# Description: Knockout studies: For xenograft knockout tumor models, 1.8×10^6SUM159 parental, or 1.8×10^6SUM159-LIPA KO cells were harvested with 1% trypsin-EDTA, washed and resuspended in sterile PBS. Cells were initially implanted into the mammary fat pads of six-week-old female C.B-17 (SCID) mice purchased from Envigo (Indianapolis, IN, USA). Mice were monitored twice weekly for tumor growth measured by Vernier calipers where tumor volume was calculated by the formula (length×width^2)/2. Tumors were dissected into 2 mm cubes when they reached 800 mm^3 in size and subsequently implanted into the mammary fat pad of twelve SCID female mice. Once tumor fragments reached 150 mm^3 in size, mice were randomly divided into vehicle group (n=6, control, 0.3% Hydroxy cellulose, i.p.) and treatment group (n=6, ERX-41, 10 mg/kg/day/i.p.). Institutional guidelines were followed to determine experimental end points.
smiles,measurement,setting,value
CC(C)COc1cc(C(=O)Nc2ccc(C(=O)N[C@H]3CC[C@H](C)CC3)cc2OCC(C)C)ccc1NC(=O)c1ccc([N+](=O)[O-])c(OCCO)c1 [ERX-41],pIC50,[1],> 6.30
same,pIC50,[2],6.90 to 7.00
same,drug level in treated tumor tissues at 24 h,[3]; 10 mg/kg single dose,detectable levels of ERX-41 at 24 h
same,oral bioavailability,"[3]; mouse, in vivo, po",orally bioavailable
same,time to detection in liver and kidneys,[3]; oral administration,≤ 4 h
same,time to detection in subcutaneous MDA-MB-231 xenograft tumors,[3]; oral or intraperitoneal administration,≤ 1.5 h
same,time of peak detectable levels in plasma,"[3]; oral, 10 mg/kg single dose",4 h
same,global de novo protein synthesis,TNBC cells,blocked; also recorded: blocks de novo protein synthesis
same,"Ki67 staining, parental xenografts",[4]; at sacrifice,decrease in Ki67 staining
same,response of parental xenografts,"[4]; i.p., 10 mg/kg/day",responded significantly
